Measurements taken from patent publication US20050037983A1, “Compositions and methods for the treatment of depression and other affective disorders” (priority 2003, published 2005).
Read-outs that look alike come from different tables or passages of the source.

What was measured:
[1] = test system: subject with major depression; experiment: Case reports: add-on anti-inflammatory in subjects with major depression, rated on 17 item Hamilton rating scale for depression (HAMD); type: in vivo, human; details: person
Method: A subject with a 4-5 month history of depression was used in this example. The subject's complaints included low mood, anhedonia, anxiety, poor concentration, significant initial insomnia, mild anorexia and weight loss of approximately 2 kilos. Symptoms were precipitated by problems both in the work and home environment. A diagnosis of major depression was made.
Over three weeks this was increased to 300 mg daily.
Rofecoxib 50 mg daily was added to the venlafaxine.
A subject with a long history of recurring depression was used in this example. The current episode was present for 3 months when initially seen. They were low in mood, tearful, irritable, very anxious and had significant sleep disturbance in the form of initial and delayed insomnia. There was no clear precipitant for their symptoms.
They had been taking venlafaxine for approximately 1 year at a maximum tolerated dose of 225 mg daily.

cyclooxygenase = details: cited from earlier work
[2] = in vivo; cited from earlier work
IL-6 = details: in vitro; cited from earlier work
[3] = test system: subjects with DSM-IV major depression; experiment: Human study: 36 subjects with DSM-IV major depression, three randomised groups, response rates; type: in vivo; details: Hamilton score greater than 20 at entry; Vioxx 30 mg/day; compared among three groups incl. placebo
Method: Thirty six (36) subjects with DSM-IV major depression and Hamilton score greater than 20 were recruited. Subjects were randomly allocated into each of three groups • 1. SSRI plus Vioxx 30 mg/day • 2. Vioxx, 30 mg/day • 3. Placebo All subjects have base line Il-6, IL-1 and cortisol levels assayed using specific assays. Biochemical assays are repeated at the end of weeks 1, 3 and 6. […] Response to treatment was associated with a drop in cortisol levels and pro-inflammatory cytokines.

[4] = test system: subjects treated with IFN-α; details: cited from earlier work; for IL-6 level compared with placebo: as early as four hours after a single dose
neutrophils = details: cited from earlier work
[5] = subjects treated with interferon alpha

CC(C)Cc1ccc(C(C)C(=O)O)cc1 (stereo not drawn) [Ibruprofen]
HAMD ([1]; baseline HAMD 20, 400 mg three times daily added to venlafaxine 225 mg daily, day 14): 8 | day of reported symptomatic improvement ([1]; 400 mg three times daily added to venlafaxine): ≤ 8 days

C[C@@H](C(=O)O)c1ccc(-c2ccccc2)c(F)c1 [R-flurbiprofen]
inhibition of cyclooxygenase activity (cyclooxygenase): does not inhibit cyclooxygenase activity | gastrointestinal mucosal damage [2]: does not cause gastrointestinal mucosal damage | potency of R-enantiomer versus S-enantiomer in down-regulating IL-6 levels (IL-6): significantly more potent

CS(=O)(=O)c1ccc(C2=C(c3ccccc3)C(=O)OC2)cc1 [Rofecoxib]
HAMD score ([1]; baseline HAMD 22, Rofecoxib 50 mg daily added to venlafaxine 300 mg daily, after 1 week): 11 | time to improvement after commencing treatment ([1]; Rofecoxib 50 mg daily added to venlafaxine, subject's description): ≤ 5 days | clinical state at review ([1]; Rofecoxib added to venlafaxine, reviewed 2 weeks later): sustained | response rates [3]: greater than that observed for placebo

CN(C)CCCC1(c2ccc(F)cc2)OCc2cc(C#N)ccc21 (stereo not drawn) [citalopram]
clinical response ([1]; citalopram 20 mg daily alone, after 5 weeks): no response

CC(C)Cc1ccc([C@@H](C)C(=O)O)cc1 [ibuprofen, R-ibuprofen]
potency of R-enantiomer versus S-enantiomer in down-regulating IL-6 levels (IL-6): significantly more potent

C[C@@H](C(=O)O)c1cccc(C(=O)c2ccccc2)c1 [ketoprofen, R-ketoprofen]
potency of R-enantiomer versus S-enantiomer in down-regulating IL-6 levels (IL-6): significantly more potent

Fc1ccc([C@@H]2CCNC[C@H]2COc2ccc3c(c2)OCO3)cc1 [paroxetine]
impact in preventing depression [4, 5]: modest impact

O=C(O)c1cc(/N=N/c2ccc(S(=O)(=O)Nc3ccccn3)cc2)ccc1O [sulfasalazine]
induction of apoptosis in neutrophils (neutrophils): capable of inducing apoptosis

COc1ccc(C(CN(C)C)C2(O)CCCCC2)cc1 (stereo not drawn) [venlafaxine]
clinical improvement ([1]; venlafaxine 300 mg daily alone, after 4 weeks on this dose): No clinical improvement

IFN-α
IL-6 level compared with placebo [4]: significantly increased | IL-6 level compared with placebo ([4]; listed as IFN-alpha): significantly increases | subjects in whom major depression is reported [4, 5]: up to 40%
